Patent publication US10676406B2, “Hopanoids producing bacteria and related biofertilizers, compositions, methods and systems” (CALIFORNIA INSTITUTE OF TECHNOLOGY, priority 2015, dated 2020)

Assays:
B. diazoefficiens WT = test: MIC of polymyxin B by E-test; format: cell-based, Bradyrhizobium diazoefficiens; details: E-test strips 0.064-1024 μg/mL, 30° C., 7 days
Protocol: (§1) Disk diffusion assays were used to quantify growth under oxidative, acidic and detergent stresses. For this, 4 day-old cultures of B. diazoefficiens strains grown in yeast extract-mannitol (YM) medium were washed and adjusted to an OD600 of 1.2 ml bacterial suspensions were then mixed with 100 ml of 42° C. pre-warmed YM soft agar (0.8% agar) and 5 ml portions of this mixture were poured on solid YM. Filter disks were placed at the center of the plates, and 5 μl of 5.5 M H2O2, 2 M HCl or SDS (10% w/v), were deposited on the disks. The diameters of growth inhibition areas were measured after incubation at 30° C. for 5 days.
(§2) The MIC of polymyxin B was determined by the E-test method using disk diffusion assay as described above. Strips containing a gradient of polymyxin B ranging from 0.064-1024 μg/mL (Biomérieux, Marcy-l'étoile, France) were placed in the center of plates, which were incubated at 30° C. for 7 days before recording the results. The experiment was done in triplicates.

B. diazoefficiens ΔhpnH = test: MIC of polymyxin B by E-test; format: cell-based, Bradyrhizobium diazoefficiens
Protocol: as §1, §2

**Q.** polymyxin B was tested. Which “MIC for polymyxin B” value (B. diazoefficiens WT) did it give?
**A.** Its value is 512 µg/mL.

**Q.** What about the “MIC for polymyxin B” value (B. diazoefficiens ΔhpnH; E-test strips 0.064-1024 μg/mL, 30° C., 7 days) of the same substance?
**A.** Its value is 48 µg/mL.

**Q.** What about the “fold lower MIC for polymyxin B in ΔhpnH than WT” value (B. diazoefficiens ΔhpnH; ΔhpnH versus WT) of the same substance?
**A.** Its value is 10 fold.
